Measurements published in patent US10704075B2, “Method for determining the reaction of a microorganism to its exposure to a chemical compound” (bioMérieux, priority 2015, dated 2020).
Values after ≈ are worked out from the molar mass of the structure shown.

Tests used:
Format in all cases: cell-based
[1] = system: Escherichia coli strain ATCC 35421 called "EC21"; test: Reference methods, strain EC21; settings: for phenotype according to the EUCAST / reference: from reference MIC
Procedure: A MIC>8 μg/mL can be assigned to this strain with this test, which is also consistent with the results obtained by the reference method.

[2] = system: Escherichia coli strain ATCC 35421 called "EC21"; test: Raman spectroscopy analysis of individual bacteria exposed to an antibiotic (method of the invention), strain EC21
Procedure: A test identical to that of Example 1 is conducted on another strain of Escherichia coli, the strain ATCC 35421 called “EC21” allows confirming the discriminatory nature of the measurement.
In order to illustrate the discriminating power of this method, the same test performed for a strain of Escherichia coli ATCC 35421 resistant to amoxicillin called “EC21” is also shown.
A solution containing the bacteria to be tested, EC10 or EC21, is used as test sample. This solution is obtained by suspending 5 10^7 CFU/mL in water in order to have a concentration potentially encountered in a clinical sample, for example a urine collection. This bacteria solution is distributed in 5 filter tubes (for example MICROCON (Centrifugal filters) YM100 from Millipore) at a rate of 150 μL per tube. A sufficient amount is added to each of these tubes for the final 250 μL of physiological medium allowing the growth constituted in this example of a mixture of PBS of final concentration of 1× (obtained from the PBS tablets of the reference A9162,0100 of the brand AppliChem), of a nutrient medium TSB 0.1× (for example obtained from Bouillon TSB-T […] A8523-10ML of Sigma-Aldrich) as follows: • c0=0 μg/mL • c1=2 μg/mL • c2=4 μg/mL • c3=8 μg/mL • c4=16 μg/mL
The 5 tubes obtained accordingly are incubated for 2 hours at 37° C. with stirring. Centrifugation at 1200 g for 8 minutes using a centrifuge adapted to the used containers (for example the model 8415C of the brand Eppendorf) then allows retrieving a bacterial pellet on the filter portion of each tube and eliminating the medium. The bacterial pellets are respectively resuspended in water in order to carry out a washing before being again pelletized by centrifugation (1200 g for 10 minutes) always on the filter portion of the tube. These pellets are distributed on a glass slide of the Marienfield type constituting the interface I (not functionalized in this configuration) by means of a swab in corresponding chambers noted C0 to C4. […]

[3] = system: Escherichia coli strain ATCC 25922 called "EC10"; test: Raman spectroscopy analysis of individual bacteria exposed to an antibiotic (method of the invention), strain EC10
Procedure: The retained conditioning device is constituted of two fluidic chambers and two antibiotic concentrations are tested: c0: “Without antibiotic” and “Resistance test”.
Let c1 be the concentration of gentamicin: c1=8 μg/mL, which corresponds to the doubling of the concentration 4 μg/mL corresponding to the clinical breakpoint as defined by the EUCAST. The objective of this test is to determine whether the bacterium is considered as resistant according to the definitions provided by the EUCAST.
A solution containing the bacteria to be tested is used as a test sample. This solution is obtained by suspending 5.10^7 CFU/mL in order to have a concentration potentially encountered in a clinical sample, for example a urine collection. This bacteria solution is brought into contact with the interface I of the device functionalized by adsorbing polyethylenimine (PEI) (generic capture). After a capture time of 10 minutes allowing the bacteria to come into contact with the functionalization, the interface I is washed with a water solution, this optional step allowing to eliminate the surplus of uncaptured bacteria still in solution. The physiological medium retained in this example is constituted of a poorly enriched mixture of Bouillon TSB-T Trypcase Soy broth (for example of the reference 42100 of bioMérieux) and of PBS 10× (for example obtained from the PBS tablets of the reference A9162, 0100 of the brand AppliChem) in a 1:9 ratio. After dividing this physiological medium into two fractions, an amount of gentamicin (for example of the reference G1397-10ML of Sigma-Aldrich) is added respectively to each of these fractions, allowing to obtain a different concentration of gentamicin c0 or c1. The solutions of concentrations c0 and c1 produced accordingly are respectively introduced into the chambers C0 or C1. The bacteria captured directly from the sample on the surface I are thus exposed, in a suitable medium, to a different antibiotic concentration depending on the chamber in which they are present.
The device is then heated in order to reach a temperature of 37° C. for two hours and then placed in measurement position on the micro-spectrometer. The marking of the captured bacteria is carried out by an automatic procedure based on image analysis, by a conventional procedure for detecting particles, acquired by means of the micro-spectrometer camera and a suitable light source. This marking allows acquiring automatically a series of Raman spectra (S0 and S1, respectively) acquired on individual bacteria present in each chamber C0 and C1. The number of spectra to be acquired for constituting a dataset depends on the level of requirement on the performances of the tests to be carried out. […]

| Compound | phenotype according to the EUCAST / reference [1] | MIC (reference methods, MICREF) ([1]; reference methods) | percentage of performed tests that do not show a characteristic effect profile of the antibiotic agent ([2]; gentamicin 8 μg/mL, N=5, M=133) | sensitivity phenotype according to the invention ([3]; Raman test at 8 μg/mL) | percentage of test samples classified as "ATB effect" ([3]; gentamicin 8 μg/mL, 2 hours at 37° C., N=5 spectra per sample, M=294, SVM classifier) | MIC ([1]; Escherichia coli, ATCC35421, read-out: MIC (reference methods, MICREF)) | MIC ([2]; Escherichia coli, ATCC35421, Raman, tested 0, 4 and 8 μg/mL, N=11, read-out: MIC assigned by the method of the invention) | category assigned to the vast majority of the measured groups ([2]; amoxicillin 4 and 8 μg/mL, N=11, FIG. 7) | MIC ([3]; Escherichia coli, ATCC25922, Raman, 2 hours at 37° C. incubation, read-out: MIC assigned by the method of the invention) |
| --- | --- | --- | --- | --- | --- | --- | --- | --- | --- |
| gentamicin | resistant | > 256 µg/mL | 100% | sensitive | 97.1% | – | – | – | – |
| CC1(C)S[C@@H]2[C@H](NC(=O)[C@H](N)c3ccc(O)cc3)C(=O)N2[C@H]1C(=O)O [amoxicillin] | resistant | – | – | – | – | 256 µg/mL (≈ 701 µM) | > 8 µg/mL | without ATB effect | 4 to 8 µg/mL (≈ 10.9 to 21.9 µM) |
